The values that follow come from ChEMBL document CHEMBL1154744, “HIV-1 protease inhibitors with a transition-state mimic comprising a tertiary alcohol: improved antiviral activity in cells” (J Med Chem, 2010).

In data set [1] the test system is Human immunodeficiency virus 1. In words: Antiviral activity against HIV1 infected in human MT4 cells assessed as inhibition of virus-induced cytopathogenicity after 6 days by XTT assay. To be noted: Human immunodeficiency virus 1, MT4, 144 h. Format: functional, organism-based. Background: Damage to the host cells serves as the signal in cytopathic effect assays.

A short description of data set [2]: Cytotoxicity against human MT4 cells assessed as decrease in cell proliferation after 5 days by XTT assay. Format: cell-based.
The next data set addresses Protease (Human immunodeficiency virus 1, UniProt Q9YQ12). Briefly: Inhibition of HIV1 protease expressed in Escherichia coli by fluorometric assay.
A short description of data set [3]: Metabolic stability in liver microsomes assessed as intrinsic clearance. It is filed as ADME, Microsome. A general note: Liver microsomes are vesicles of endoplasmic reticulum, rich in cytochrome P450 enzymes.
The subject of data set [4] is Human immunodeficiency virus 1. In words: Antiviral activity against […] HIV1 with protease A71V, I84V L90M mutant by cell free assay. Format: functional, organism-based.
The nature of data set [5]: Apparent permeability across human Caco-2 cells. Format: ADME, cell-based.
Data set [6] deals with Human immunodeficiency virus 1. In words: Antiviral activity against HIV1 with protease V32I, M46I V82A mutant by cell free assay. It is filed as functional, organism-based.
Data set [7] concerns Human immunodeficiency virus 1. In words: Antiviral activity against HIV1 with protease M46I, V82F, I84V mutant by cell free assay. It is filed as functional, organism-based.
In data set [8] the test system is Human immunodeficiency virus 1. Briefly: Antiviral activity against HIV1 with protease G48V, L90M mutant by cell free assay. It is filed as functional, organism-based.
Data set [9] addresses Human immunodeficiency virus type 1 protease (Human immunodeficiency virus 1, UniProt Q72874, I84V/L63P/V82T). In words: Inhibition of HIV1 protease L63P, V82T, I84V mutant.
For data set [10], the system named is Human immunodeficiency virus 1. Briefly: Antiviral activity against HIV1 with protease V32I, M46I A71V, V82A mutant by cell free assay. Format: functional, organism-based.

The structures appear in SMILES notation. pEC50, pKi: −log10 of the molar value.

A word on the pEC50: it is −log10 of the EC50, conventionally taken in molar units. Usually CC50 stands for the concentration giving 50% cytotoxicity. What is called pKi is the negative decadic logarithm of the Ki, by convention in mol/L. For orientation: Papp means a coefficient for how fast a substance crosses the barrier.

Chain of Protease (Q9YQ12 whole entry): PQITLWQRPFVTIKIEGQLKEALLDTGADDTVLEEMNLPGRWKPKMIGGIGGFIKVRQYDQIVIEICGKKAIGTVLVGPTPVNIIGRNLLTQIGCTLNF
Chain of Human immunodeficiency virus type 1 protease (Q72874 entry or part of it I84V/L63P/V82T): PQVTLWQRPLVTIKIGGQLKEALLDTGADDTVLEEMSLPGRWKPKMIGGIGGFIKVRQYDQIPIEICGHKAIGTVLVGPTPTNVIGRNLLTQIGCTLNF

Take `CC(C)CN(C[C@@H](O)[C@H](Cc1ccccc1)NC(=O)O[C@H]1CO[C@H]2OCC[C@H]21)S(=O)(=O)c1ccc(N)cc1`: the pEC50 in [1] was 8.40.
Regarding `COC(=O)N[C@H](C(=O)N(Cc1ccc(Br)cc1)C[C@@](O)(Cc1ccccc1)C(=O)N[C@H]1c2ccccc2C[C@H]1O)C(C)(C)C`, the pEC50 in data set [1] is less than 5.00. Besides, the CC50 at 120 h in data set [2] was more than 10000 nM.
`COC(=O)N[C@H](C(=O)NN(Cc1ccccc1)C[C@](O)(Cc1ccccc1)C(=O)N[C@H]1c2ccccc2C[C@H]1O)C(C)(C)C`: in data set [1], the pEC50 was less than 5.00. The molecule also gave a pKi on Protease of less than 5.30.
For the molecule `COC(=O)N[C@H](C(=O)NN(Cc1ccc(-c2cccnc2)cc1)C[C@@](O)(Cc1ccccc1)C(=O)N[C@H]1c2ccccc2C[C@H]1O)C(C)(C)C`, the 50% cytotoxic concentration (CC50) at 120 h in data set [2] was more than 10000 nM. For the same molecule, the clearance in [3] was 154 µL/min/mg.
With `COC(=O)N[C@H](C(=O)NN(Cc1ccccc1)C[C@@](O)(Cc1ccccc1)C(=O)N[C@H]1c2ccccc2C[C@H]1O)C(C)(C)C`, the pEC50 in data set [1] is less than 5.00. Besides, the pKi on Protease was less than 5.30.
Consider `CC(C)(C)NC(=O)[C@@H]1CN(Cc2cccnc2)CCN1C[C@@H](O)C[C@@H](Cc1ccccc1)C(=O)N[C@H]1c2ccccc2C[C@H]1O`, for which the pEC50 in data set [1] was 7.30.
Regarding `COC(=O)N[C@H](C(=O)NN(CC[C@](O)(Cc1ccccc1)C(=O)N[C@H]1c2ccccc2C[C@H]1O)Cc1ccc(Br)cc1)C(C)(C)C`, the pEC50 in data set [1] is less than 5.00. Further, the pKi at Protease was less than 5.30. Besides, in data set [2], the CC50 at 120 h was more than 10000 nM.
For `CNC(=O)[C@@H](NC(=O)[C@](O)(CCN(Cc1ccc(Br)cc1)NC(=O)[C@@H](NC(=O)OC)C(C)(C)C)Cc1ccccc1)C(C)(C)C`, the pEC50 in data set [1] is less than 5.00. In addition, at Protease, the pKi is 5.66. The CC50 at 120 h in [2] was more than 10000 nM.
In the case of `COC(=O)N[C@H](C(=O)NN(CC[C@@](O)(Cc1ccccc1)C(=O)N[C@H]1c2ccccc2C[C@H]1O)Cc1ccc(-c2ccc(NC(C)=O)cc2)cc1)C(C)(C)C`, the pEC50 in data set [1] is 7.52. At Protease, this molecule showed a pKi of 8.74. Further, in data set [2], the CC50 at 120 h is more than 10000 nM.
In the case of `CNC(=O)[C@@H](NC(=O)[C@@](O)(CCN(Cc1ccc(Br)cc1)NC(=O)[C@@H](NC(=O)OC)C(C)(C)C)Cc1ccccc1)C(C)C`, the pEC50 in data set [1] is 6.80. Besides, the pKi at Protease is 8.54. Also, the CC50 at 120 h in data set [2] was more than 10000 nM.
As to `COCCNC(=O)[C@@H](NC(=O)[C@@](O)(CCN(Cc1ccc(Br)cc1)NC(=O)[C@@H](NC(=O)OC)C(C)(C)C)Cc1ccccc1)C(C)C`, the negative-log EC50 (pEC50) in data set [1] was 6.77. This molecule showed a pKi on Protease of 8.49. Besides, the CC50 at 120 h in [2] was more than 10000 nM.
For the molecule `COC(=O)N[C@H](C(=O)NN(CC[C@@](O)(Cc1ccccc1)C(=O)N[C@H]1c2ccccc2C[C@H]1O)Cc1ccc(-c2cnn(C)c2)cc1)C(C)(C)C`, the pEC50 in data set [1] is 8.00. This molecule also showed a pKi at Protease of 8.77. In data set [2], the CC50 at 120 h was more than 10000 nM.
For `COC(=O)N[C@H](C(=O)NN(CC[C@@](O)(Cc1ccccc1)C(=O)N[C@H]1c2ccccc2C[C@H]1O)Cc1ccc(Br)cc1)C(C)(C)C`, the pEC50 is 7.36 in data set [4]; 7.13 in data set [6]; 7.40 in data set [1]; 6.62 in [7]; 8.10 in data set [8]; 7.15 in data set [10]. Further, in data set [5], the apparent permeability coefficient (Papp) is 42 ×10⁻⁶ cm/s. The pKi was 8.54 on Protease and 7.52 in [9]. For the same molecule, in data set [2], the CC50 at 120 h turned out to be 7900 nM. Moreover, in data set [3], the clearance was more than 300 µL/min/mg.
Consider `COC(=O)N[C@H](C(=O)NN(CC[C@@](O)(Cc1ccccc1)C(=O)N[C@H]1c2ccccc2C[C@H]1O)Cc1ccc(-c2ccc3c(c2)OCO3)cc1)C(C)(C)C`, for which the pEC50 in data set [1] is 8.52. In addition, the pKi on Protease is 8.10. Moreover, the CC50 at 120 h in data set [2] is 6100 nM.
Turning to `CNC(=O)[C@@H](NC(=O)[C@@](O)(CCN(Cc1ccc(Br)cc1)NC(=O)[C@@H](NC(=O)OC)C(C)(C)C)Cc1ccccc1)C(C)(C)C`, in data set [1], the pEC50 was 7.14. This molecule gave a pKi at Protease of 8.77. Besides, the CC50 at 120 h in data set [2] was more than 10000 nM.
With `CNC(=O)[C@@H](NC(=O)[C@](O)(CCN(Cc1ccc(Br)cc1)NC(=O)[C@@H](NC(=O)OC)C(C)(C)C)Cc1ccccc1)C(C)C`, the pEC50 in [1] is less than 5.00. This molecule had a pKi at Protease of 5.91. In data set [2], the CC50 at 120 h is more than 10000 nM.
`COC(=O)N[C@H](C(=O)NN(CC[C@@](O)(Cc1ccccc1)C(=O)N[C@H]1c2ccccc2C[C@H]1O)Cc1ccc(-c2ccccc2)cc1)C(C)(C)C`: the pEC50 in data set [1] is 8.10. Further, at Protease, the pKi is 7.92. Also, in data set [2], the CC50 at 120 h is more than 10000 nM.
As to `COC(=O)N[C@H](C(=O)NN(CC[C@@](O)(Cc1ccccc1)C(=O)N[C@H]1c2ccccc2C[C@H]1O)Cc1ccc(-c2ccccn2)cc1)C(C)(C)C`, the pEC50 was 8.15 in [4]; 7.62 in data set [6]; 8.15 in data set [1]; 6.89 in data set [7]; 8.10 in [8]; 8.22 in data set [10]. The Papp in data set [5] came to 3.5 ×10⁻⁶ cm/s. The CC50 at 120 h in [2] is more than 10000 nM. The clearance in [3] amounted to 20 µL/min/mg.
As to `COC(=O)N[C@H](C(=O)NN(CC[C@@](O)(Cc1ccccc1)C(=O)N[C@H]1c2ccccc2C[C@H]1O)Cc1ccc(-c2cccnc2)cc1)C(C)(C)C`, the pEC50 in data set [4] is 7.72; in data set [6] it was 7.57; in [1] it was 8.05; in [7], 6.22; in data set [8] it was 8.00; in [10], 7.85. Further, in data set [5], the Papp was 26 ×10⁻⁶ cm/s. The figures for the pKi (at Protease; in data set [9]) were 8.92 and 7.80, respectively. Moreover, in data set [2], the CC50 at 120 h was 4900 nM. In data set [3], the clearance is more than 300 µL/min/mg.
Take `COC(=O)N[C@H](C(=O)NN(CC[C@@](O)(Cc1ccccc1)C(=O)N[C@H]1c2ccccc2C[C@H]1O)Cc1ccc(-c2ccncc2)cc1)C(C)(C)C`: the pEC50 in data set [1] was 8.52. In addition, the pKi at Protease was 8.64. Besides, the CC50 at 120 h in data set [2] was more than 10000 nM.
Consider `COC(=O)N[C@H](C(=O)NN(CC[C@@](O)(Cc1ccccc1)C(=O)N[C@H]1c2ccccc2C[C@H]1O)Cc1ccc(-c2cc(F)cc(F)c2)cc1)C(C)(C)C`, for which, in [1], the pEC50 was 7.89. Further, the pKi at Protease was 7.96. Besides, in data set [2], the CC50 at 120 h is more than 10000 nM.
Regarding `COC(=O)N[C@H](C(=O)NN(CC[C@@](O)(Cc1ccccc1)C(=O)N[C@H]1c2ccccc2C[C@H]1O)Cc1ccc(-c2c(C)noc2C)cc1)C(C)(C)C`, the negative-log EC50 (pEC50) in data set [1] was 8.30. On Protease, this molecule showed a pKi of 8.55. In [2], the CC50 at 120 h is more than 10000 nM.
Take `COC(=O)N[C@H](C(=O)NN(CC[C@@](O)(Cc1ccccc1)C(=O)N[C@H]1c2ccccc2C[C@H]1O)Cc1ccccc1)C(C)(C)C`: the pEC50 in data set [1] is 6.72. The pKi at Protease is 8.64. Besides, the CC50 at 120 h in data set [2] was more than 10000 nM.
Take `COC(=O)N[C@H](C(=O)NN(CCc1ccccc1)CC[C@@](O)(Cc1ccccc1)C(=O)N[C@H]1c2ccccc2C[C@H]1O)C(C)(C)C`: the pEC50 in data set [1] was 5.17. Also, the pKi at Protease was 8.09.
Consider `COCCNC(=O)[C@@H](NC(=O)[C@](O)(CCN(Cc1ccc(Br)cc1)NC(=O)[C@@H](NC(=O)OC)C(C)(C)C)Cc1ccccc1)C(C)C`, for which, in [1], the pEC50 is less than 5.00. The pKi at Protease is 5.56. In [2], the CC50 at 120 h is more than 10000 nM.
With `COC(=O)N[C@H](C(=O)N[C@@H](Cc1ccccc1)[C@@H](O)CN(Cc1ccc(-c2ccccn2)cc1)NC(=O)[C@@H](NC(=O)OC)C(C)(C)C)C(C)(C)C` [ATAZANAVIR], the pKi on Protease is 9.30.
For the molecule `Cc1cccc(C)c1OCC(=O)N[C@@H](Cc1ccccc1)[C@@H](O)C[C@H](Cc1ccccc1)NC(=O)[C@H](C(C)C)N1CCCNC1=O` [LOPINAVIR], the pEC50 in [1] was 8.00.
For the molecule `CC(C)c1nc(CN(C)C(=O)N[C@H](C(=O)N[C@@H](Cc2ccccc2)C[C@H](O)[C@H](Cc2ccccc2)NC(=O)OCc2cncs2)C(C)C)cs1` [RITONAVIR], the pEC50 in data set [1] is 7.30.
